Data: patent US9198886B2, “Use of 2,5-dihydroxybenzene for the treatment of ocular diseases” (priority 2006, dated 2015)

Experiments:
[1] = tested on: intestinal inflammatory disease induced by dextran sulfate sodium; assay: DSS-induced intestinal inflammatory disease in mice; assay type: in vivo, mice of strain C57BL/6J-664
Method: (§1) The mice were subject to two 7-day cycles of exposure to dextran sulfate sodium (DSS) (from day 1 to 7 and from day 14 to 21) in the drinking water separated by 7 days in which regular water was provided (from 7 to 14). One group was treated with vehicle (0.9% NaCl), another with Solu-Medrol (10 mg/kg/day i.m.), and the other two groups with potassium 2,5-diacetoxybenzene sulfonate (DABS), one of them with 100 mg/kg/day i.p. and the other with 125 mg/kg/day, orally (p.o.). The body weight was normalized on day 0. Data are expressed as the mean+SD of the percentage of the basal weight (day 0) of 10 mice per group.
as §1, with “(p.o.)” for “(p.o.). The body weight was normalized on day 0.”, “mean±SD” for “mean+SD”, “clinical score” for “percentage”, “disease continuously obtained from” for “basal weight (day 0) of”, “per each” for “per”
The induction of the intestinal inflammatory disease described below is a representative model for the evaluation of therapeutic strategies to treat Crohn's disease and ulcerative colitis. 7-8 week old female mice of strain C57BL/6J-664 were used. The intestinal inflammatory disease (HD) was induced by feeding the mice with 3% dextran sulfate sodium (DSS; MW 40,000) dissolved in drinking water in 2 cycles. Each cycle consisted of 7 days with 3% DSS in the drinking water separated by 7 days with regular water. A daily clinical evaluation of the animals was performed in which the body weight, the consistency of the faeces and the presence of blood in the faeces were determined. Thus, the validated score of the clinical activity of the disease was evaluated with a 0 to 6 scale, considering the following parameters: consistency of the faeces, presence or absence of fecal blood and loss of weight.
At the end of the first cycle of exposure to DSS, the mice were divided into the following treatment groups: a first group was administered intraperitoneal (i.p) injections of vehicle (0.9% NaCl). Another group received intramuscular injections of Solu-Medrol, a standard IID treatment, at a dose of 10 mg/kg/day. A third group was administered i.p. injections of potassium 2,5-diacetroxybenzene sulfonate (DABS, 100 mg/kg/day). The last group was treated orally with 125 mg/kg day of DABS.

[2] = tested on: experimentally induced asthma; assay: OVA-induced asthma in mice (methacholine Penh, BAL cell count); assay type: in vivo, Balb/c mice
Method: Effect of potassium 2,5-diacetoxybenzene sulfonate (DABS) on bronchoconstriction in asthmatic mice treated with methacholine. All the mice were exposed to nebulized methacholine (MC; 5 and 20 mg/ml). Bronchoconstriction was determined as the enhanced pause. (Penh), calculated as described in the corresponding example (example 13). As control, the background and the exposure to nebulized saline (0.9% NaCl) are shown. *p<0.05 vs. saline.
Effect of potassium 2,5-diacetoxybenzene sulfonate (DABS) on the inflammatory cell count in the bronchoalveolar lavage (BAL) in asthmatic mice. The data are expressed as mean±SEM of the total number of detected cells in the BAL of the right lung of each animal. *p<0.05, ***p<0.001 vs. group treated with vehicle.
6-9 week old Balb/c mice were used. The ovoalbumin (OVA)/aluminum complex was obtained after dissolving OVA (500 μg/mL) in PBS, and mixing it with an equal volume of 10% aluminum potassium sulfate at pH 6.5 for 1 hour. After centrifuging the pellet (750×g for 5 minutes) the OVA/aluminum pellet was resuspended in distilled water. On day 0, the mice were injected intraperitoneally injected with 100 μg of OVA/aluminum. Eight days later, the mice were anesthetized and exposed to 250 μg of OVA. Later, they were administered 125 μg of OVA on days 15, 18 and 21. […].
The following treatments were administered to the animals: (i.p.) vehicle from day 2, potassium 2,5-diacetoxybencene sulfonate (DABS; 100 mg/kg/day, i.p.) from day 2, DABS (100 mg/kg/day, i.p.) from day 8 and Combivent (20 μg/200 μg in aerosol) on days 20, 21 and 22, the latter as a reference treatment.
In order to evaluate the pulmonary function, the response to methacholine in conscious mice was determined, 24 hours after the last exposure to OVA. The mice were exposed to increasing methacholine concentrations (5 and 20 mg/mL) in the form of aerosol using an ultrasonic nebulizer during 2 minutes. The degree of bronchoconstriction was expressed as the enhanced pause (Penh) which correlates to the mouse air resistance, impedance and pressure within the pleura. The Penh was calculated using the formula Penh=[(Te/Rt−1)×(PEF/PIF)], where Te is expiratory time, Rt is relaxation time, PEF is peak expiratory flow and PIF is peak inspiratory flow×0.67 coefficient.
After measuring airway hyperreactivity, the mice were sacrificed and the bronchoalveolar lavage (BAL) of the right lung was collected. The total number of cells in the BAL fluid was determined.

pterygium = assay: Topical solution in a patient with unilateral pterygium; assay type: in vivo, human; conditions: 2.5% solution, one drop four times per day, two weeks
Text: FIG. 3. […] The treatment consists of the application of 4 drops of said solution daily, for two weeks.
The solution was applied topically to a patient suffering from unilateral pterygium, as one drop four times per day.

[3] = tested on: angiogenesis induced by Helicobacter pylori in the human gastric mucosa; assay: Gastric mucosa biopsy in a patient chronically infected with Helicobacter pylori; assay type: in vivo; conditions: 500 mg/day oral, one week
Method: FIG. 5. Helicobacter pylori • A) Hematoxylin-eosin staining of the gastric mucosa of a sample obtained from a patient infected with Helicobacter pylori before treatment. The arrows and the asterisk indicate the formation of neovessels in the mucosa protruding the gastric lumen through the lost epithelial layer. • B) Hematoxylin-eosin staining of the gastric mucosa of a sample obtained from the same patient infected with Helicobacter pylori after administering 500 mg of 2,5-dihydroxybenzenesulfonate (DHBS) daily for a week.
A biopsy of the gastric mucosa was performed in a patient chronically infected with Helicobacter pylori before the oral treatment with 2,5-dihydroxybenzene sulfonic acid (Dobesilate) (500 mg/day). After a week of treatment, another biopsy was performed in the patient. Both biopsies were evaluated using hematoxylin-eosin staining. […] Microscopically, the arrows and the asterisk indicate the formation of neovessels in the mucosa protruding the gastric lumen through the lost epithelial layer. […] This example illustrates that the use of DHBS is beneficial in the treatment of gastritis and angiogenesis caused by the infection with Helicobacter pylori.

Row | SMILES | disease clinical score ([1]; 100 mg/kg/day i.p.) | disease clinical score ([1]; 125 mg/kg/day orally) | loss of body weight produced by two cycles of DSS ([1]; DABS 100 mg/kg/day i.p. or 125 mg/kg/day p.o., Solu-Medrol 10 mg/kg/day i.m., vs vehicle) | efficacy compared with standard treatment Solu-Medrol ([1]; body weight and clinical score, Solu-Medrol 10 mg/kg/day i.m.) | methacholine induced bronchoconstriction (Penh) ([2]; 100 mg/kg/day i.p. from day 2) | methacholine induced bronchoconstriction (Penh) ([2]; 100 mg/kg/day i.p. from day 8) | presence of BAL cells in asthmatic mice ([2]; 100 mg/kg/day i.p., vs vehicle) | BAL cell reduction compared with Combivent ([2]; DABS 100 mg/kg/day i.p., Combivent aerosol days 20-22) | increase of the Penh after exposure to MC vs saline ([2]; MC 5 and 20 mg/ml, Combivent 20 μg/200 μg aerosol days 20-22 or DABS 100 mg/kg/day i.p.) | pterygium appearance (pterygium) | angiogenic activity in gastric mucosa [3] | epithelial membrane of gastric mucosa [3] | gastric mucosa symptoms of congestion and erythema [3]
1 | CC(=O)Oc1ccc(OC(C)=O)c(S(=O)(=O)[O-])c1.[K+] [DABS, potassium 2,5-diacetoxybenzene sulfonate] | reduced | reduced | reduced | not lower (in some points it is higher) | completely prevented | completely prevented | significantly reduced | even more than the treatment with Combivent | do not show a significant increase of the Penh |  |  |  | 
2 | O=S(=O)(O)c1cc(O)ccc1O [DHBS, 2,5-dihydroxybenzene sulfonic acid] |  |  |  |  |  |  |  |  |  | partial reversal of the pterygium | less angiogenic activity | apparently normal | symptoms of congestion and erythema disappear
